Experimental findings from patent publication US9868705B2, “Tetra-aryl cyclobutane inhibitors of androgen receptor action for the treatment of hormone refractory cancer” (The Board of Trustees of the University of Illinois, priority 2013, dated 2018) are described below.

The target in one assay is T1, T877A (LNCaP) AR (Homo sapiens, UniProt P10275, T878A).
T1 construct: expressed in transfected cells; host or cells: CV-1
T1 sequence (P10275 1-920 T878A): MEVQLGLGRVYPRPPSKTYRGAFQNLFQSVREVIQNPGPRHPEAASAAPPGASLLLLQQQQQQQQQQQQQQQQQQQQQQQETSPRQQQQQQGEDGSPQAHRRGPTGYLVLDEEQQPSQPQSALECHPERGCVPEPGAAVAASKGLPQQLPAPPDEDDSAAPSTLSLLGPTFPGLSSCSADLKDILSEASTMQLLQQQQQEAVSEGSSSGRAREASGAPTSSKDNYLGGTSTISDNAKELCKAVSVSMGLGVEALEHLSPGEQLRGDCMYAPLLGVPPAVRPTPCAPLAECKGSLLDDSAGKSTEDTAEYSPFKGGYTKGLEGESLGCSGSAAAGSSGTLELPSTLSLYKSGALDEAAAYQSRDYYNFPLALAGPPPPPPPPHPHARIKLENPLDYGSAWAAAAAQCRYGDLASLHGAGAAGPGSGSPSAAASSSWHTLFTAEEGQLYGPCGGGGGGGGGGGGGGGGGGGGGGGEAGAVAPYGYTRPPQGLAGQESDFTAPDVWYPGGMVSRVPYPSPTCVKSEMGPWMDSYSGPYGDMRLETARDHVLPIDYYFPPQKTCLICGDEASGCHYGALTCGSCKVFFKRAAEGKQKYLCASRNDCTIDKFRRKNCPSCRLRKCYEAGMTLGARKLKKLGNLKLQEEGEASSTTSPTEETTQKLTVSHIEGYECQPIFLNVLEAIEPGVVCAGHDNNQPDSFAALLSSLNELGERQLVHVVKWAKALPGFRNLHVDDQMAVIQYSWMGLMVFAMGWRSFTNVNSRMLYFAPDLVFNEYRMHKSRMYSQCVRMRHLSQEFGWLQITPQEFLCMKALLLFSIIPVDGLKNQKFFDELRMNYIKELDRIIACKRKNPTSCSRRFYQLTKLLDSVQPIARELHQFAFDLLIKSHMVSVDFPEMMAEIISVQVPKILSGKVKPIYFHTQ
Put plainly: MMTV-luciferase transcription assay in CV-1 cells, T877A AR. In kind it is cell-based. From the text: (§1) These compounds were screened using an AR-responsive MMTV transcription assay in CV-1 cells, utilizing both wild type and T877A (LNCaP) AR. […]

In another assay the target is T2, W741C AR (Homo sapiens, UniProt P10275, W742C).
T2 sequence (P10275 1-920 W742C): T1 sequence (P10275 1-920 T878A) with W742C, A878T
Put plainly: MMTV-luciferase transcription assay in CV-1 cells, W741C AR.

The next assay relates to XIP-AR cells. The assay can be described thus: XIP-AR cell proliferation. The note with it: XIP-AR overexpressing cells.
Another assay relates to androgen receptor. Put plainly: Whole-cell competition binding assay using 3H-R1881. The note with it: whole cells; mutant AR and WT-AR.
The target of assay [1] is T3, AR (Homo sapiens, UniProt P10275).
T3 sequence (P10275 1-920): T1 sequence (P10275 1-920 T878A) with A878T
Put plainly: Chromatin immunoprecipitation of AR at androgen-response elements in XIP-AR cells.

Assay [2] concerns the target T3, AR. The assay can be described thus: AR target gene expression in XIP-AR cells. Conditions: in the presence of R1881.
The target of assay [3] is T3, AR. Put plainly: Cellular location of AR by microscopy.
A further assay relates to LNCaP cells. The assay can be described thus: LNCaP cell proliferation. The note with it: androgen-stimulated LNCaP cells.
The test system of assay [4] is LNCaP (AR-T877A) xenograft. Put plainly: LNCaP xenograft model of prostate cancer in mice. The assay is classed as in vivo. From the text: Our goal in this example is to identify small molecules that block activity of mutant androgen receptors (ARs) but not wild type AR, by synthesizing a library of compounds, to explore possible mechanisms of action, and to evaluate therapeutic potential. A total of 75 tetra-aryl substituted cyclobutanes (CBs) were synthesized. FIG. 18 illustrates a general reaction scheme for the synthesis of some of these compounds from the photo cycloaddition of 2,4-dichloro-6-styrylpyrimidine. FIG. 19 illustrates a general reaction scheme for the synthesis from the photo cycloaddition of 2,4-disubstituted 6-styrylpyrimidines. LNCaP cell proliferation was evaluated. LNCaP cells are a cell line of human cells commonly used in the field of oncology. LNCaP cells are androgen-sensitive human prostate adenocarcinoma cells derived from the left supraclavicular lymph node metastasis from a person in 1977. They are adherent epithelial cells growing in aggregates and as single cells. […] . FIGS. 21A, B, C, and D are graphic summaries of the results for cyclobutane compound CB-7. […] Prostate cancer was the most common tumor among men in the United States in 2012, with over 240,000 diagnoses and approximately 28,000 deaths. […] . FIG. 23 illustrates the androgen receptor ligand binding domain bound to testosterone. FIG. 24 illustrates mouse survival data from a mutant androgen receptor-T877A xenograft experiment for CB-7 at various concentrations. […] . FIGS. 25A and B provide data on AR mutant selectivity for compounds CB-1 to CB-8. […] It is seen that the cyclobutanes show selectivity of mutant androgen receptor activation in the luciferase transcriptional assay in CV-1 cells (a commercially available cell line derived from the kidney of an African green monkey). FIGS. 26 and 27A and B illustrate data from a ligand competition assay for compounds CB-1, CB-6, and CB-7.
Based on the above results, we further evaluated the effects of CB 10 in vivo. […] We also utilized a traditional in vivo model of prostate cancer, the LNCaP xenograft model.

The target of assay [5] is T3, AR. Put plainly: AR relative binding affinity (RBA).
The target in assay [6] is T4, T877A mutant androgen receptor (Homo sapiens, UniProt P10275, T878A).
T4 construct: endogenous in cells; host or cells: LNCaP-XIP
T4 sequence (P10275 1-920 T878A): T1 sequence (P10275 1-920 T878A)
Put plainly: FKBP51 endogenous gene expression in LNCaP-XIP cells. In kind it is cell-based. Conditions: FKBP51 expression, T877A mutant receptor. From the text: (§2) FIG. 44 depicts data for dose-dependent inhibition of androgen receptor-dependent endogenous gene expression of FKBP51 by Compound 1 of Example IV in LNCaP cells producing exclusively T877A mutant androgen receptor (LNCaP-XIP) and LNCaP cells transfected with wild type androgen receptor (LNCaP-androgen receptor, ratio of wild type to T877A receptor is ca. 3:1).
(§3) To more fully characterize the selectivity of compound 1 for the mutant receptor, we measured its inhibitory potential against the WT and T877A mutant receptor in an AR-dependent luciferase transcription assay in CV-1 cells (FIGS. 43A and B).

Assay [7] concerns wild type androgen receptor. Put plainly: FKBP51 endogenous gene expression in LNCaP-AR cells (wild type AR overexpressed). The assay is classed as cell-based, human. The note with it: at 20 M (so in the source).
Text: as §2, §3

The target in a further assay is T5, wild type AR (Homo sapiens, UniProt P10275).
T5 construct: expressed in transfected cells; host or cells: CV-1
T5 sequence (P10275 1-920): T1 sequence (P10275 1-920 T878A) with A878T
Put plainly: MMTV-luciferase transcription assay in CV-1 cells, wild type AR. The assay is classed as cell-based. The note with it: CV1 transient transfection, MMTV-Luciferase reporter; read-out: IC50 WT.
Text: as §1

The mark [8] stands for this setting: LNCaP (AR-T877A) xenograft, concentrations comparable to MDV3100.

In general, IC50 refers to the concentration that inhibits the measured activity by half.

Numbering of substitutions follows the chain as printed. Where two headings read alike, the source gives them in different places.

`Clc1nccc([C@H]2[C@H](c3ccccc3)[C@@H](c3ccnc(Cl)n3)[C@H]2c2ccccc2)n1` [DPM-21]: the “increase in potency for T877A mutant over WT” value on T877A (LNCaP) AR (AR-dependent luciferase transcription assay in CV-1 cells) is reported as “approximately 100 fold”. In addition, the “IC50 lower than 1” value at T877A (LNCaP) AR (T877A AR) is “approximately 10 fold”. In addition, the IC50 at T877A (LNCaP) AR (read-out: IC50 for T877A AR) is about 0.1 µM. In addition, at W741C AR (AR-dependent luciferase transfection assay), the “increase in potency for W741C AR over WT receptor” value is reported as “approximately 10 fold”.

For `CC(C)(O)C(=O)Nc1ccc([N+](=O)[O-])c(C(F)(F)F)c1` [OHF, hydroxyflutamide, reference compound], the “cell proliferation, compound alone” value in the assay on XIP-AR cells was “promote cell proliferation”.

Regarding `Clc1nccc([C@H]2[C@H](c3ccccc3)[C@@H](c3ccnc(Cl)n3)[C@H]2c2ccccc2)n1` [CB 10], in the assay with androgen receptor, the “competition with 3H-R1881 for binding to AR” value (shortened to “competition with 3H-R1881”) was “effectively compete against R1881 binding”. At AR [1], the “AR recruitment to androgen-response elements of PSA and NKX3.1” value is reported as “inhibit the recruitment”. The “reversal of androgen stimulated gene expression” value at AR [2] is “reverse androgen stimulated gene expression similar to MDV”. Also, the “cellular location of AR after treatment” value on AR [3] (microscopy) is “AR is primarily outside of the nucleus”. Also, the “inhibition of LNCaP cell proliferation” value in the assay on LNCaP cells is listed as “equally as well as MDV”. For the same molecule, the “tumor weight at study termination” value in [4] (escalating dose 5 mpk to 100 mpk) is recorded as “significant dose dependent inhibition of tumor growth”. Besides, the tumor growth result in assay [4] (intact male mice bearing LNCaP xenografts, 50 mpk or 100 mpk) is listed as “significantly inhibited”.

On to `C[C@]1(O)CC[C@H]2[C@@H]3CCC4=CC(=O)CCC4=C3C=C[C@@]21C` [R1881, reference compound], for which the “cellular location of AR after treatment” value at AR [3] is reported as “promote nuclear translocation”.

For the molecule `COc1cc(C2C(c3ccccc3)C(c3cc(OC)nc(OC)n3)C2c2ccccc2)nc(OC)n1` (stereo not drawn) [CB 1], the “competition with 3H-R1881” value in the assay with androgen receptor was “effectively compete against R1881 binding”. Also, the “reversal of androgen stimulated gene expression” value on AR [2] was “less effective”.

As to `COc1ccc(CNc2cc([C@H]3[C@H](c4ccccc4)[C@H](c4cc(NCc5ccc(OC)cc5)nc(NCc5ccc(OC)cc5)n4)[C@H]3c3ccccc3)nc(NCc3ccc(OC)cc3)n2)cc1` [CB-7], the “competition with 3H-R1881” value in the assay on androgen receptor is “compete with 3H-R1881”. Besides, in assay [4] (setting [8]), the survival of mice result is “increases survival of mice” and the tumor size entry is “decreases tumor size”.

For the molecule `Cc1cc([C@H]2[C@H](c3ccccc3)[C@H](c3cc(C)nc(C)n3)[C@H]2c2ccccc2)nc(C)n1` [CB-49], the “AR RBA” value at AR [5] is given as 0.027%. In assay [6], the “concentration at which maximal inhibition is obtained” value worked out at 6 µM. Besides, in [7], the “inhibition of FKBP51 gene expression” value is “ca. 80%”.

Regarding `CNc1cc([C@H]2[C@H](c3ccccc3)[C@H](c3cc(NC)nc(NC)n3)[C@H]2c2ccccc2)nc(NC)n1` [CB-51], the IC50 is over 20 µM at wild type AR and over 20 µM at T877A (LNCaP) AR (CV1 transient transfection, MMTV-Luciferase reporter, read-out: IC50 T877A). Also, the “IC50 W741C” value at W741C AR (CV1 transient transfection, MMTV-Luciferase reporter) is “Toxic”.
